ChEMBL document CHEMBL1201862, “PubChem BioAssay data set” (2004)
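Each compound was tested at five concentrations against cells in 96-well plates for 48 hours. Abbreviation: GI50, concentration required for 50% inhibition of growth.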 Active and inactive are the calls of the source. No stated cut-off is given here; in the data, active = GI50 up to about 1.1 µM and inactive = higher.

What was measured:
Assay in all cases: NCI anticancer screen, dose series, 48 h
[1] = tested on: SK-MEL-5
[2] = tested on: CAKI-1
[3] = tested on: M19-MEL
[4] = tested on: RXF 393
[5] = tested on: XF498
[6] = tested on: LXFL 529
[7] = tested on: HCT-116
[8] = tested on: HOP-18
[9] = tested on: TK-10
[10] = tested on: KM12
[11] = tested on: IGROV-1
[12] = tested on: K562
[13] = tested on: RXF 631
[14] = tested on: OVCAR-5
[15] = tested on: M14
[16] = tested on: SK-MEL-28
[17] = tested on: CCRF-CEM
[18] = tested on: COLO 205
[19] = tested on: A549
[20] = tested on: HCC 2998
[21] = tested on: OVCAR-3
[22] = tested on: SNB-19
[23] = tested on: NCI-H460
[24] = tested on: 786-0
[25] = tested on: SF-268
[26] = tested on: SR
[27] = tested on: UO-31
[28] = tested on: MOLT-4
[29] = tested on: SNB-75
[30] = tested on: NCI-H23
[31] = tested on: SN12C
[32] = tested on: SF-295
[33] = tested on: ACHN
[34] = tested on: DMS-114
[35] = tested on: Malme-3M
[36] = tested on: NCI-H522
[37] = tested on: LOX IMVI
[38] = tested on: HT-29
[39] = tested on: OVCAR-8
[40] = tested on: UACC-62
[41] = tested on: DMS-273
[42] = tested on: SW-620
[43] = tested on: OVCAR-4
[44] = tested on: HOP-62
[45] = tested on: SNB-78
[46] = tested on: SF-539
[47] = tested on: U-251
[48] = tested on: DLD-1
[49] = tested on: HOP-92
[50] = tested on: HL-60
[51] = tested on: UACC-257

Measured: GI50

Cc1cccc(NC(=O)CC(=O)N2N=C(N(CCC#N)c3ccc(Cl)cc3)CC2c2ccccc2)c1 (stereo unspecified)
inactive: [1] > 100 µM | [2] > 100 µM | [3] > 100 µM | [4] > 100 µM | [5] > 100 µM | [6] > 100 µM | [7] > 100 µM | [8] > 100 µM | [9] > 100 µM | [10] > 100 µM | [11] > 100 µM | [12] > 100 µM | [13] > 100 µM | [14] > 100 µM | [15] > 100 µM | [16] > 100 µM | [17] > 100 µM | [18] > 100 µM | [19] > 100 µM | [20] > 100 µM | [21] > 100 µM | [22] > 100 µM | [23] > 100 µM | [24] > 100 µM | [25] > 100 µM | [26] > 100 µM | [27] > 100 µM | [28] > 100 µM | [29] > 100 µM | [30] > 100 µM | [31] > 100 µM | [32] > 100 µM | [33] > 100 µM | [34] > 100 µM | [35] > 100 µM | [36] > 100 µM | [37] > 100 µM | [38] > 100 µM | [39] > 100 µM | [40] > 100 µM | [41] > 100 µM | [42] > 100 µM | [43] > 100 µM | [44] > 100 µM | [45] > 100 µM | [46] > 100 µM | [47] > 100 µM | [48] > 100 µM | [49] > 100 µM | [50] > 100 µM | [51] > 100 µM
